Experimental data: patent US12570675B2, “Boronic acid compounds” (LG CHEM, LTD., priority 2020, dated 2026)

Biological target: Proteasome chymotrypsin-like activity (S26 protein from RPMI8226 cells) (Homo sapiens, UniProt P28074)
Format: biochemical
Details: S26 protein from RPMI8226 cell extract 2 ug/well, substrate 20 uM, 37° C., 90 minutes; read-out: Proteasome chymotrypsin-like activity inhibition IC50
How it was run: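 Fluorogenic AMC substrates (20 uM final) report chymotrypsin-like (Suc-Leu-Leu-Val-Tyr-AMC) or caspase-like (Z-Leu-Leu-Glu-AMC) cleavage by RPMI8226-derived S26 protein, 2 ug/well, pH 8.0 Tris lysate.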

Proteasome chymotrypsin-like activity (S26 protein from RPMI8226 cells), sequence (P28074 60-263 limits assumed): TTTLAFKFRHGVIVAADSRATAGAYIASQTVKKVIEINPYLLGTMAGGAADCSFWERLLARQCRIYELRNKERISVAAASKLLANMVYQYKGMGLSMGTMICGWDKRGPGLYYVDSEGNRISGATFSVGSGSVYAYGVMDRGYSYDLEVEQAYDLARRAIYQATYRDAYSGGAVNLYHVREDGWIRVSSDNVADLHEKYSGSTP

IC50 | Structure (SMILES)
< 0.05 µM | COc1ccc(COCC2=NOC(Cc3ccccc3)(C(=O)N[C@@H](Cc3ccccc3)B(O)O)C2)cc1 (stereo partly drawn) [Example 275, ((1R)-1-(5-benzyl-3-(((4-methoxybenzyl)oxy)methyl)-4,5-dihydroisoxazol-5-carboxamido)-2-phenylethyl)boronic acid]
< 0.01 µM | Cc1cc(COCC2=NOC(Cc3ccccc3)(C(=O)N[C@@H](Cc3ccccc3)B(O)O)C2)ccn1 (stereo partly drawn) [Example 277, ((1R)-1-(5-benzyl-3-(((2-methylpyridin-4-yl)methoxy)methyl)-4,5-dihydroisoxazol-5-carboxamido)-2-phenylethyl)boronic acid]
< 0.01 µM | CC(C)C[C@H](NC(=O)C1(Cc2ccccc2)CC(COc2cccc3ccccc23)=NO1)B(O)O (some centres unmarked) [Example 278]
< 0.01 µM | O=C(NCC1=NOC(Cc2ccccc2)(C(=O)N[C@@H](Cc2ccccc2)B(O)O)C1)c1cccc(C(F)(F)F)c1 (stereo partly drawn) [Example 281, ((1R)-1-(5-benzyl-3-((3-(trifluoromethyl)benzamido)methyl)-4,5-dihydroisoxazol-5-carboxamido)-2-phenylethyl)boronic acid]
< 0.01 µM | COc1ccc(C(=O)NCC2=NOC(Cc3ccccc3)(C(=O)N[C@@H](Cc3ccccc3)B(O)O)C2)cc1 (stereo partly drawn) [Example 283, ((1R)-1-(5-benzyl-3-((4-methoxybenzamido)methyl)-4,5-dihydroisoxazol-5-carboxamido)-2-phenylethyl)boronic acid]
< 0.01 µM | COc1cccc(C(=O)NCC2=NOC(Cc3ccccc3)(C(=O)N[C@@H](CC(C)C)B(O)O)C2)c1 (some centres unmarked) [Example 284]
< 0.01 µM | CC(C)C[C@H](NC(=O)C1(Cc2ccccc2)CC(CNC(=O)c2ccccc2Cl)=NO1)B(O)O (some centres unmarked) [Example 286]
< 0.01 µM | CC(C)C[C@H](NC(=O)C1(Cc2ccccc2)CC(CNC(=O)c2ccc(Cl)cc2)=NO1)B(O)O (some centres unmarked) [Example 287]
< 0.01 µM | O=C(NCC1=NOC(Cc2ccccc2)(C(=O)N[C@@H](Cc2ccccc2)B(O)O)C1)c1nccc2ccccc12 (stereo partly drawn) [Example 288, ((1R)-1-(5-benzyl-3-((isoquinolin-1-carboxamido)methyl)-4,5-dihydroisoxazol-5-carboxamido)-2-phenylethyl)boronic acid]
< 0.025 µM | CC[C@H](NC(=O)C1(Cc2ccccc2)CC(CNC(=O)c2cccn3ccnc23)=NO1)B(O)O (stereo partly drawn) [Example 297, ((1R)-1-(5-benzyl-3-((imidazo[1,2-a]pyridin-8-carboxamido)methyl)-4,5-dihydroisoxazol-5-carboxamido)propyl)boronic acid]
< 0.01 µM | CC(C)[C@H](NC(=O)C1(Cc2ccccc2)CC(CNC(=O)c2cccn3ccnc23)=NO1)B(O)O (stereo partly drawn) [Example 298, ((1R)-1-(5-benzyl-3-((imidazo[1,2-a]pyridin-8-carboxamido)methyl)-4,5-dihydroisoxazol-5-carboxamido)-2-methylpropyl)boronic acid]
< 0.01 µM | O=C(NCC1=NOC(Cc2ccccc2)(C(=O)N[C@@H](Cc2ccccc2)B(O)O)C1)c1cccc2ccccc12 (stereo partly drawn) [Example 299, ((1R)-1-(3-((1-naphthamido)methyl)-5-benzyl-4,5-dihydroisoxazol-5-carboxamido)-2-phenylethyl)boronic acid]
< 0.01 µM | O=C(NCC1=NOC(Cc2ccccc2)(C(=O)N[C@@H](Cc2ccccc2)B(O)O)C1)c1cccn2ccnc12 (stereo partly drawn) [Example 300, ((1R)-1-(5-benzyl-3-((imidazo[1,2-a]pyridin-8-carboxamido)methyl)-4,5-dihydroisoxazol-5-carboxamido)-2-phenylethyl)boronic acid]
< 0.01 µM | CC[C@H](NC(=O)C1(Cc2ccccc2)CC(CNC(=O)c2cccc3ccccc23)=NO1)B(O)O (stereo partly drawn) [Example 303, ((1R)-1-(3-((1-naphthamido)methyl)-5-benzyl-4,5-dihydroisoxazol-5-carboxamido)propyl)boronic acid]
< 0.01 µM | CC(C)[C@H](NC(=O)C1(Cc2ccccc2)CC(CNC(=O)c2cccc3ccccc23)=NO1)B(O)O (stereo partly drawn) [Example 304, ((1R)-1-(3-((1-naphthamido)methyl)-5-benzyl-4,5-dihydroisoxazol-5-carboxamido)-2-methylpropyl)boronic acid]
< 0.01 µM | CC(C)C[C@H](NC(=O)C1(Cc2ccccc2)CC(CNC(=O)c2cccn3cnnc23)=NO1)B(O)O (some centres unmarked) [Example 305]
< 0.01 µM | Cc1cccc(C(=O)NCC2=NOC(Cc3ccccc3)(C(=O)N[C@@H](CC(C)C)B(O)O)C2)c1 (some centres unmarked) [Example 307]

Continued, compound first:

Structure (SMILES) | IC50
Cc1cc(COCC2=NOC(Cc3ccccc3)(C(=O)N[C@@H](CC(C)C)B(O)O)C2)ccn1 (some centres unmarked) [Example 276] | < 0.01 µM
O=C(N[C@@H](Cc1ccccc1)B(O)O)C1(Cc2ccccc2)CC(COc2cccc3ccccc23)=NO1 (stereo partly drawn) [Example 279, ((1R)-1-(5-benzyl-3-((naphthalen-1-yloxy)methyl)-4,5-dihydroisoxazol-5-carboxamido)-2-phenylethyl)boronic acid] | < 0.01 µM
CC(C)C[C@H](NC(=O)C1(Cc2ccccc2)CC(CNC(=O)c2cccc(C(F)(F)F)c2)=NO1)B(O)O (some centres unmarked) [Example 280] | < 0.01 µM
COc1ccc(C(=O)NCC2=NOC(Cc3ccccc3)(C(=O)N[C@@H](CC(C)C)B(O)O)C2)cc1 (some centres unmarked) [Example 282] | < 0.01 µM
COc1cccc(C(=O)NCC2=NOC(Cc3ccccc3)(C(=O)N[C@@H](Cc3ccccc3)B(O)O)C2)c1 (stereo partly drawn) [Example 285, ((1R)-1-(5-benzyl-3-((3-methoxybenzamido)methyl)-4,5-dihydroisoxazol-5-carboxamido)-2-phenylethyl)boronic acid] | < 0.01 µM
CC[C@H](NC(=O)C1(Cc2ccccc2)CC(CNC(=O)c2nccc3ccccc23)=NO1)B(O)O (stereo partly drawn) [Example 289, ((1R)-1-(5-benzyl-3-((isoquinolin-1-carboxamido)methyl)-4,5-dihydroisoxazol-5-carboxamido)propyl)boronic acid] | < 0.025 µM
CC(C)[C@H](NC(=O)C1(Cc2ccccc2)CC(CNC(=O)c2nccc3ccccc23)=NO1)B(O)O (stereo partly drawn) [Example 290, ((1R)-1-(5-benzyl-3-((isoquinolin-1-carboxamido)methyl)-4,5-dihydroisoxazol-5-carboxamido)-2-methylpropyl)boronic acid] | < 0.01 µM
O=C(NCC1=NOC(Cc2ccccc2)(C(=O)N[C@@H](Cc2ccccc2)B(O)O)C1)c1cc(Cl)ccc1Cl (stereo partly drawn) [Example 296, ((1R)-1-(5-benzyl-3-((2,5-dichlorobenzamido)methyl)-4,5-dihydroisoxazol-5-carboxamido)-2-phenylethyl)boronic acid] | < 0.01 µM
CC(C)C[C@H](NC(=O)C1(Cc2ccccc2)CC(CNC(=O)c2cccc3nccn23)=NO1)B(O)O (some centres unmarked) [Example 301] | < 0.01 µM
O=C(NCC1=NOC(Cc2ccccc2)(C(=O)N[C@@H](Cc2ccccc2)B(O)O)C1)c1cccc2nccn12 (stereo partly drawn) [Example 302, ((1R)-1-(5-benzyl-3-((imidazo[1,2-a]pyridin-5-carboxamido)methyl)-4,5-dihydroisoxazol-5-carboxamido)-2-phenylethyl)boronic acid] | < 0.01 µM
O=C(NCC1=NOC(Cc2ccccc2)(C(=O)N[C@@H](Cc2ccccc2)B(O)O)C1)c1cccn2cnnc12 (stereo partly drawn) [Example 306, ((1R)-1-(3-(([1,2,4]triazolo[4,3-a]pyridin-8-carboxamido)methyl)-5-benzyl-4,5-dihydroisoxazol-5-carboxamido)-2-phenylethyl)boronic acid] | < 0.01 µM
CC(C)C[C@H](NC(=O)C1(Cc2ccccc2)CC(CNC(=O)c2ccnc(Cl)c2)=NO1)B(O)O (some centres unmarked) [Example 311] | < 0.01 µM
